The values below come from patent US20130018062A1, “Pain therapy with metabolism blocked antifolates” (priority 2011, published 2013).

Data set [1] deals with patients with Rheumatoid Arthritis. Particulars: compared with methotrexate; cited from earlier work.
In another data set the test system is Allergic Rabbits. Particulars: allergen induced; cited from earlier work.
A short description of data set [2]: Toxicity (maximum tolerated dose, weight loss) in nude mice bearing HCT-8 xenograft. It counts as in vivo. The conditions noted are these: i.v. push daily × 5 in nude mice.
Data set [3] has as its system Human HCT-8 Colon Xenograft. As to the kind of experiment: Antitumor activity in nude mice bearing human HCT-8 colon xenograft (Example-4). It counts as in vivo. The conditions noted are these: i.v. push daily × 5 at maximum tolerated dose (M-Trex 4.0, MTX 1.0 mg/kg/day). From the text:
There are three general accepted methods for the evaluation of Pain in patients suffering from a number of diseases. They are Visual Analog Scale (VAS); Numeric rating Scale (NRS) and Verbal Categorical Rating Scale […]. Of these three assessment methods VAS is considered to be most reliable in a majority of cases to evaluate and quantify the magnitude of the perception of Pain. Clinical trials conducted by Castaneda and Nair used VAS to assess pain intensity in RA patients receiving 10-DAAM in one trial [G. Alarcon, O. Castaneda, W. J. Koopman, C. L. Krumdieck, and M. G. Nair. U.S. Pat. No. 5,030,634 (1991)] and M-Trex (CH-1504) in another trial conducted separately. Almost all cases of cancer Pain is due to tissue inflammation, tissue compression and tissue damage secondary to rapid proliferation of cells. Therefore any therapeutic intervention that shrinks proliferating tissues can bring about significant reduction in Pain. Shown below is the efficacy of M-Trex in shrinking human colon cancer transplanted and growing in nude mice.
For orientation: A xenograft is tissue or cells of one species grown in another, often human tumour cells in immunodeficient mice.

The next data set has as its system human tumor cell lines. Particulars: all 49 human tumor cell lines evaluated at NCI-DTP program; cited from earlier work.
In the next data set the test system is CCRF-CEM (Leukemia). As to the kind of experiment: Growth inhibition of human tumor cells in culture (NCI). It counts as cell-based. Particulars: logarithmic value. From the text:
(§1) The preceding data collected at the National Cancer Institute summarize the ability of M-Trex to inhibit 50% of the growth of selected tumor cells in culture. The values are expressed as Log10 GI50 values all of which are lower than 10^−8M. In the same table a comparison is made of the respective values of TGI (Total Growth Inhibition) for M-Trex and MTX. […] In addition, the Log10 GI50 values of M-Trex was lower than −8.00 for the following cell lines: NSCLC, A549/ATCC and NCI H23; Colon Cancer, HCT 116, HCT 29 and SW 620; CNS Cancer, SF 268; Melanoma M 14 and UACC 62; Ovarian Cancer, OVCAR-8; Renal Cancer, ACHN, CAKI-1, SN 12C, and UO 31; Prostate Cancer, PC 3 and Breast cancer, MDA-MB-435 and MDA-N. The MG_MID value of MTX for all 49 human tumor cell lines evaluated at NCI-DTP program was −7.05. […] The tumors and sarcomas are solid while leukemia and lymphoma are liquid tumors.

Another data set concerns RPMI 8226 (Leukemia). The data set is described as above. The data set is classed as cell-based. Particulars: logarithmic value.
Excerpt: as §1

For a further data set, the system named is K562 (Leukemia). The data set is described as above. It counts as cell-based. The conditions noted are these: logarithmic value.
Excerpt: as §1

For the next data set, the system named is SR (Leukemia). The data set is described as above. The data set is classed as cell-based. Particulars: logarithmic value.
Excerpt: as §1

A further data set relates to SF 539 (CNS Cancer). Described as above. It counts as cell-based. The conditions noted are these: logarithmic value.
Excerpt: as §1

A further data set has as its system MOLT-4 (Leukemia). Described as above. It counts as cell-based. The conditions noted are these: logarithmic value.
Excerpt: as §1

SMILES strings stand for the structures.

As to `Nc1nc(N)c2nc(CCc3ccc(C(=O)N[C@@H](CCC(=O)O)C(=O)O)cc3)cnc2n1` [10-DAAM, 10-Deazaaminopterin], the “Pain reduction (in words)” value in data set [1] is “very effective in reducing Pain”.
As to `CN(Cc1cnc2nc(N)nc(N)c2n1)c1ccc(C(=O)N[C@@H](CCC(=O)O)C(=O)O)cc1` [MTX, methotrexate, reference compound], the “Asthmatic Response Early” value in the data set on Allergic Rabbits was 29. The “Asthmatic Response Late” value in the data set on Allergic Rabbits is 37. In the data set with Allergic Rabbits, the “BHR (Bronchial Hyper-Responsiveness)” value was 32. Besides, the “Maximum Tolerated dose” value in data set [2] was “MTX (1.0 mg/kg/day)^33”. Moreover, in data set [3] (nude mice, HCT-8 xenograft), the “MTGI, Maximum Tumor Growth Inhibition (% of control)” value amounted to 30.0 ± 9.0%. Also, the “Tumor doubling time, treated/control (%)” value in data set [3] (nude mice, HCT-8 xenograft) is recorded as 176.92%. Besides, in data set [3] (control 2.6 ± 0.8 days), the “TD, Tumor Doubling Time” value stood at 4.6 ± 0.6 days. Also, in the data set on human tumor cell lines, the MG_MID value is on record as −7.05. Further, the “TGI (Total Growth Inhibition)” value is on record as −3.77 with CCRF-CEM (Leukemia); −3.66 in the data set on RPMI 8226 (Leukemia); −3.30 in the data set on K562 (Leukemia); −3.50 with SR (Leukemia); −3.66 with SF 539 (CNS Cancer); −3.55 in the data set on MOLT-4 (Leukemia).
In the case of `Cn1c(=O)c2[nH]cnc2n(C)c1=O` [Theophylline], in the data set with Allergic Rabbits, the “Asthmatic Response Early” value is 45, the “Asthmatic Response Late” value is 49 and the “BHR (Bronchial Hyper-Responsiveness)” value was 39.
